Here are results for 9 compounds from ChEMBL document CHEMBL1130923, “Synthesis and biological activity of 2-methyl-20-epi analogues of 1 alpha,25-dihydroxyvitamin D3” (1998).

The test system of one experiment is HL-60. Kind of experiment: Cell differentiation activity towards HL-60 cells was assessed in terms of NTB reactivity. Type of experiment: functional, Homo sapiens.
Experiment [1] has as its target T1, Vitamin D3 receptor (Bos taurus) (UniProt Q28037).
T1 sequence (whole entry): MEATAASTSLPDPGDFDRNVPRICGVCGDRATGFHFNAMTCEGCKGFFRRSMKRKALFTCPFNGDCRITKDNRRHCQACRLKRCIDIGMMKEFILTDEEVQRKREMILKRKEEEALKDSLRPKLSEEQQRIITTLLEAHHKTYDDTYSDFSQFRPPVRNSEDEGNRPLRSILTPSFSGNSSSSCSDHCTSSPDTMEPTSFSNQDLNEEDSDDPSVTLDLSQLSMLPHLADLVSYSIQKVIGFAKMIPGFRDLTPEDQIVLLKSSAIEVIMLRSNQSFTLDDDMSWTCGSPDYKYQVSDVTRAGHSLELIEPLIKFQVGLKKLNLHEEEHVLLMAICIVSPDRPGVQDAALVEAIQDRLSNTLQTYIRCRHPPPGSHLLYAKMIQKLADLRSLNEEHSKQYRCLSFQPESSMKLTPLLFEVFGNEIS
Put plainly: Affinity for bovine thymus VDR vitamin D receptor.

A further experiment is filed under the species Rattus norvegicus. Put plainly: Bone calcium mobilization was tested on normal SD male rats and serum calcium level was reported. It is filed as functional. Details: unit not given beside the values.

With `C=C1/C(=C\C=C2/CCC[C@]3(C)[C@@H]([C@H](C)CCCC(C)(C)O)CC[C@@H]23)C[C@@H](O)[C@@H](C)[C@@H]1O`, the Activity in the experiment with HL-60 worked out at 2600; in experiment [1] it was 160; in the experiment filed under Rattus norvegicus, 115.

On to `C=C1/C(=C\C=C2/CCC[C@]3(C)[C@@H]([C@H](C)CCCC(C)(C)O)CC[C@@H]23)C[C@@H](O)C[C@@H]1O` [CALCITRIOL], for which the Activity (in the experiment with HL-60; in experiment [1]; in the experiment filed under Rattus norvegicus) was 100 throughout.

`C=C1/C(=C\C=C2/CCC[C@]3(C)[C@@H]([C@H](C)CCCC(C)(C)O)CC[C@@H]23)C[C@@H](O)[C@@H](C)[C@H]1O`: the Activity in the experiment with HL-60 was 1; in experiment [1] it was less than 0.1.

In the case of `C=C1/C(=C\C=C2/CCC[C@]3(C)[C@@H]([C@H](C)CCCC(C)(C)O)CC[C@@H]23)C[C@H](O)[C@H](C)[C@@H]1O`, the Activity in the experiment on HL-60 was determined as 730; in experiment [1], 17; in the experiment filed under Rattus norvegicus it was 144.

As to `C=C1/C(=C\C=C2/CCC[C@]3(C)[C@@H]([C@H](C)CCCC(C)(C)O)CC[C@@H]23)C[C@@H](O)[C@H](C)[C@@H]1O`, the Activity is 59000 in the experiment with HL-60, 1200 in experiment [1] and 655 in the experiment filed under Rattus norvegicus.

As to `C=C1/C(=C\C=C2/CCC[C@]3(C)[C@@H]([C@H](C)CCCC(C)(C)O)CC[C@@H]23)C[C@H](O)[C@@H](C)[C@H]1O`, the results for the Activity (with HL-60; in experiment [1]; in the experiment listed under Rattus norvegicus) were 190, 7 and 19, respectively.

As for `C=C1/C(=C\C=C2/CCC[C@]3(C)[C@@H]([C@H](C)CCCC(C)(C)O)CC[C@@H]23)C[C@H](O)[C@H](C)[C@H]1O`, the Activity in the experiment on HL-60 is 1; in experiment [1], less than 0.1.

For `C=C1/C(=C\C=C2/CCC[C@]3(C)[C@@H]([C@H](C)CCCC(C)(C)O)CC[C@@H]23)C[C@H](O)[C@@H](C)[C@@H]1O`, the results for the Activity (with HL-60; in experiment [1]) were 6 and less than 0.1, respectively.

As for `C=C1/C(=C\C=C2/CCC[C@]3(C)[C@@H]([C@H](C)CCCC(C)(C)O)CC[C@@H]23)C[C@@H](O)[C@H](C)[C@H]1O`, the Activity is 3 in the experiment on HL-60 and less than 0.1 in experiment [1].
